Reference: publication PMC12281424, “A Rac-specific competitive inhibitor of guanine nucleotide binding reduces metastasis in triple-negative breast cancer” (Cell Reports Medicine, 2025)

Tests used:
JNK1α1(h) = JNK1α1(h) (Homo sapiens, UniProt P45983); experiment: Kinase Profiler; type: biochemical
Procedure: (§1) The kinase profiler was performed by the company Eurofins (Discovery, Panlab and Cerep).

PRK1(h) = PRK1(h) (Homo sapiens, UniProt Q16512); experiment: Kinase Profiler; type: biochemical
Procedure: (§2) Blood cell counts, kinase profiler, safety screen, bacterial cytotoxicity, Ames, micronucleus assays were performed by the company Eurofins (France). The kinase profiler was performed by the company Eurofins (Discovery, Panlab and Cerep).

MAPK2(h) = MAPK2(h) (Homo sapiens, UniProt P28482); experiment: Kinase Profiler; type: biochemical
Procedure: as §1

MAPK2(m) = MAPK2(m) (Mus musculus, UniProt P63085); experiment: Kinase Profiler; type: biochemical
Procedure: as §1

SGK3(h) = SGK3(h) (Homo sapiens, UniProt Q96BR1); experiment: Kinase Profiler; type: biochemical
Procedure: as §1

FGFR2(N549H)(h) = FGFR2(N549H)(h) (Homo sapiens, UniProt P21802, N549H); experiment: Kinase Profiler; type: biochemical
Procedure: as §1

ICK(h) = ICK(h) (Homo sapiens, UniProt Q9UPZ9); experiment: Kinase Profiler; type: biochemical
Chain of ICK(h) (Q9UPZ9 whole entry): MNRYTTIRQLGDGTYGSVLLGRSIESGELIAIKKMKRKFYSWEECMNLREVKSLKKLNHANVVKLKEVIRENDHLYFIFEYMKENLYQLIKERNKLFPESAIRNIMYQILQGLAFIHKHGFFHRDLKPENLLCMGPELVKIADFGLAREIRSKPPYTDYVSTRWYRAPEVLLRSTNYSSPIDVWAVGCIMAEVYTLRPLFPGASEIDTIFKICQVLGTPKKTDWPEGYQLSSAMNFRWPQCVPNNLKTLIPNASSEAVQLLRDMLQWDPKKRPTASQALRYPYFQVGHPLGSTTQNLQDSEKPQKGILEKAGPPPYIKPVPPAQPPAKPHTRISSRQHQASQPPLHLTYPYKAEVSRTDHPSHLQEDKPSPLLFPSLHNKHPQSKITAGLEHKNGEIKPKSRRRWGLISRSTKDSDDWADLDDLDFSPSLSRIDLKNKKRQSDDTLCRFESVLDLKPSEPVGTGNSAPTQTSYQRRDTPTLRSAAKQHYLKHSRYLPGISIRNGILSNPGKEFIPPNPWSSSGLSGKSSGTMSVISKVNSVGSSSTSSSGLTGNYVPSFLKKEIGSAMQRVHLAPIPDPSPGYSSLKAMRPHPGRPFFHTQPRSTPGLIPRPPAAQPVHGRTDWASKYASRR
Procedure: as §1

MEK2(h) = MEK2(h) (Homo sapiens, UniProt P36507); experiment: Kinase Profiler; type: biochemical
Procedure: as §1

[1] = system: GABAA, Flunitrazepam, Central; experiment: Safety screen; type: binding, rat
Procedure: (§3) Blood cell counts, kinase profiler, safety screen, bacterial cytotoxicity, Ames, micronucleus assays were performed by the company Eurofins (France).

PRP4(h) = PRP4(h) (Homo sapiens, UniProt Q13523); experiment: Kinase Profiler; type: biochemical
Procedure: as §1

Syk(h) = Syk(h) (Homo sapiens, UniProt P43405); experiment: Kinase Profiler; type: biochemical
Procedure: as §1

CK2α2(h) = CK2α2(h) (Homo sapiens, UniProt P19784); experiment: Kinase Profiler; type: biochemical
Chain of CK2α2(h) (P19784 whole entry): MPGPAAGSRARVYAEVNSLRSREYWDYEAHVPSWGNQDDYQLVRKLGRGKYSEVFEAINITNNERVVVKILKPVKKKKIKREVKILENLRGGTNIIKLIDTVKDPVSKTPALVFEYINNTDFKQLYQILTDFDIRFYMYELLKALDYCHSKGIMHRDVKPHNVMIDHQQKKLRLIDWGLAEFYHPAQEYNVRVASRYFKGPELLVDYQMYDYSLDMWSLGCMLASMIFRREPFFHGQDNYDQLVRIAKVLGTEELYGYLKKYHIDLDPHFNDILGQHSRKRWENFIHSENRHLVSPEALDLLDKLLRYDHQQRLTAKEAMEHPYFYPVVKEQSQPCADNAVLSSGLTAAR
Procedure: as §1

SRMS(h) = SRMS(h) (Homo sapiens, UniProt Q9H3Y6); experiment: Kinase Profiler; type: biochemical
Procedure: as §1

PhKγ2(h) = PhKγ2(h) (Homo sapiens, UniProt P15735); experiment: Kinase Profiler; type: biochemical
Procedure: as §2

EphA4(h) = EphA4(h) (Homo sapiens, UniProt P54764); experiment: Kinase Profiler; type: biochemical
Chain of EphA4(h) (P54764 20-986): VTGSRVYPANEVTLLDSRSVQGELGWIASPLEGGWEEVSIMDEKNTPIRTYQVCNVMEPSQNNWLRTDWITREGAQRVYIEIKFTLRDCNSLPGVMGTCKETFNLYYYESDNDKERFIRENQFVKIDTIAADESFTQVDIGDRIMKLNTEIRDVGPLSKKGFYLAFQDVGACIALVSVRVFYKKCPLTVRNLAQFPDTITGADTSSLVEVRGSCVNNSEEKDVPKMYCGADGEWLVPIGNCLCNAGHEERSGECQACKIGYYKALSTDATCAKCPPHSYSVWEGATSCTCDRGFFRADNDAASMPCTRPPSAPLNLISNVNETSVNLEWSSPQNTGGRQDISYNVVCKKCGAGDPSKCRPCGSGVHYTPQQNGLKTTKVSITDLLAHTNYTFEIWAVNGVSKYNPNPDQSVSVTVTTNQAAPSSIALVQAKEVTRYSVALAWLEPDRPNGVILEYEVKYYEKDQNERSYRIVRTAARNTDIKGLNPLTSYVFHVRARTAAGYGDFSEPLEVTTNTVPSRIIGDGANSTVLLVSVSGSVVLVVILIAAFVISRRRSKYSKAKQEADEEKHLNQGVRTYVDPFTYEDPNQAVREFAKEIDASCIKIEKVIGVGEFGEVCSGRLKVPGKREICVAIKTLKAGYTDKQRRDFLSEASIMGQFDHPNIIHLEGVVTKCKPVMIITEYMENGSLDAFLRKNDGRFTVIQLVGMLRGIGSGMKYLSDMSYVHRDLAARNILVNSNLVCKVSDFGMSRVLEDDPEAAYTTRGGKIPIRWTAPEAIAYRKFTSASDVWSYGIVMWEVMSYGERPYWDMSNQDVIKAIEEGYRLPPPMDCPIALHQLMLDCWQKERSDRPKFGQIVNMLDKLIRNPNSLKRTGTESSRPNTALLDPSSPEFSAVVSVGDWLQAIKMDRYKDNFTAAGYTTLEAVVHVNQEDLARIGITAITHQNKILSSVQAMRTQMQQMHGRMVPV
Procedure: as §2

CaMKIδ(h) = CaMKIδ(h) (Homo sapiens, UniProt Q8IU85); experiment: Kinase Profiler; type: biochemical
Procedure: as §1

MRCKγ(h) = MRCKγ(h) (Homo sapiens, UniProt Q6DT37); experiment: Kinase Profiler; type: biochemical
Procedure: as §1

GRK2(h) = GRK2(h) (Homo sapiens, UniProt P25098); experiment: Kinase Profiler; type: biochemical
Chain of GRK2(h) (P25098 whole entry): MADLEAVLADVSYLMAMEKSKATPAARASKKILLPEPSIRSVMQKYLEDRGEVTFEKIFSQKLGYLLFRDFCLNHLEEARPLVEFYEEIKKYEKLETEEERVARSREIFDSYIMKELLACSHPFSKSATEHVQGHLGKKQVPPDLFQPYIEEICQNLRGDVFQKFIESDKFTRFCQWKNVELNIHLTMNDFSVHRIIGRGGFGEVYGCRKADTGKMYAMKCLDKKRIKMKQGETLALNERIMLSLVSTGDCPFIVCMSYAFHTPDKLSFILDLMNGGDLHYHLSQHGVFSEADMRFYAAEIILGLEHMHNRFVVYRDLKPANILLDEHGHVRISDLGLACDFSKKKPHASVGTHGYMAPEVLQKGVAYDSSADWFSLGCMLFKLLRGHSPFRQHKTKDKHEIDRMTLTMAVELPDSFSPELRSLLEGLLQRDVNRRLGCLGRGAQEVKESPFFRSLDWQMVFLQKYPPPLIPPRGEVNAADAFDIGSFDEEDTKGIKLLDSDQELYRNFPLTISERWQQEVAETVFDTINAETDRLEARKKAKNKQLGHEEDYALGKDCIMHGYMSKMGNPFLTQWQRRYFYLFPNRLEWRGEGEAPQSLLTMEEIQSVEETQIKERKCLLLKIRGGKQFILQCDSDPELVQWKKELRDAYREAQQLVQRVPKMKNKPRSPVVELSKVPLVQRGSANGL
Procedure: as §2

Dopamine D1 = Dopamine D1 (Homo sapiens, UniProt P21728); experiment: Safety screen; type: binding
Procedure: as §3

TYK2(h) = TYK2(h) (Homo sapiens, UniProt P29597); experiment: Kinase Profiler; type: biochemical
Procedure: as §2

[2] = target: Transporter, Dopamine (DAT) (Homo sapiens, UniProt Q01959); experiment: Safety screen; type: binding
Chain of Transporter, Dopamine (DAT) (Q01959 whole entry): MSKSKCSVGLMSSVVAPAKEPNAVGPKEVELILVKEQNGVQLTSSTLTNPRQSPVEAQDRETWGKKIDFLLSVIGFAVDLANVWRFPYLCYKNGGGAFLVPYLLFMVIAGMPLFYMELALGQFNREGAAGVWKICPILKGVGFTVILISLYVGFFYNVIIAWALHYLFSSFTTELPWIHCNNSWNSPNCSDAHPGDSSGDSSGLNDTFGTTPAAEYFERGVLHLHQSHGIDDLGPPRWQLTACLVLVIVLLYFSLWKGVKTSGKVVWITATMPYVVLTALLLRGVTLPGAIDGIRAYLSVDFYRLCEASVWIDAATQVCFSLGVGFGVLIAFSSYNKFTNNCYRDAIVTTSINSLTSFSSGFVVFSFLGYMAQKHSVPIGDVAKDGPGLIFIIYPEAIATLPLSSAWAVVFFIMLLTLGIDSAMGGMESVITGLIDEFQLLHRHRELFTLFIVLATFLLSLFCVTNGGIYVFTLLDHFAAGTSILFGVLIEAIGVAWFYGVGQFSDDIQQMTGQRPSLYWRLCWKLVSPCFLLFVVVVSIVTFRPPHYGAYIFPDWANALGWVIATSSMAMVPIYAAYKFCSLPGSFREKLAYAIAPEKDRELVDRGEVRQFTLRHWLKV
Procedure: as §3

Abl(h) = Abl(h) (Homo sapiens, UniProt P00519); experiment: Kinase Profiler; type: biochemical
Procedure: as §1

ROCK-II(h) = ROCK-II(h) (Homo sapiens, UniProt O75116); experiment: Kinase Profiler; type: biochemical
Procedure: as §2

NIH/3T3 cell adhesion = experiment: Cell adhesion assay (xCELLigence impedance); type: cell-based; details: 10^-5 M
Procedure: NIH3T3cells (10000/well) were seeded in a 96 well plate microtiter xCELLigence assay plate (E-Plate) (ACEA Biosciences Inc.) and placed on the Real-time xCELLigence Cell Analyzer (Roche Applied Science) platform at 37°C to measure the “cell index” every 5 min for a period of 6 h. The cell index unit is defined as (Rn − Rb)/15. Rn is the cell electrode impedance of the well when it contains cells. Rb is the background impedance of the well with the media alone.
Supplementary Fig. 3: Example of one pharmacophore model used for virtual screening. (a) The pharmacophore model shown was created based on RAC1 (grey) and NSC23766 (orange) interaction. […] (b) Impact of different screening molecules (10^-5 M) on NIH/3T3 cell adhesion (xCELLingence Real-time cellanalysis, Agilent), migration (CYTOO Mobility plates) and proliferation (xCELLingence Real-time cell analysis, Agilent) .The level of RAC activation is determinedby the detection of RAC-GTP (pull-down assay) in NIH/3T3 cell treated with EGF (10 ng/mL) and the differentmolecules and normalize to the level of RAC activity measuredin the presenceof the reference RAC inhibitor EHT1864.
Supplementary Fig. 4: A41 inhibits RAC-dependent cell functions. (a) Representative records of single NIH/3T3 cell migration on micropatterned fibronectin lines (CYTOO Mobility plates) in the absence (Control)and presenceA41 at 10^-5 M (left panel) and corresponding quantification of migration speed (right panel) (scale bar: 20µm). […] (b) Typical curves showing the cell index representing the adhesion of NIH/3T3 fibroblast (xCELLingence Real-time cell analysis, Agilent) under control condition (Control) and pre-treated with 10 µM A41 or NSC23766 (left panel) and corresponding quantification of cell adhesion speed (right panel). […]

WNK3(h) = WNK3(h) (Homo sapiens, UniProt Q9BYP7); experiment: Kinase Profiler; type: biochemical
Chain of WNK3(h) (Q9BYP7 whole entry): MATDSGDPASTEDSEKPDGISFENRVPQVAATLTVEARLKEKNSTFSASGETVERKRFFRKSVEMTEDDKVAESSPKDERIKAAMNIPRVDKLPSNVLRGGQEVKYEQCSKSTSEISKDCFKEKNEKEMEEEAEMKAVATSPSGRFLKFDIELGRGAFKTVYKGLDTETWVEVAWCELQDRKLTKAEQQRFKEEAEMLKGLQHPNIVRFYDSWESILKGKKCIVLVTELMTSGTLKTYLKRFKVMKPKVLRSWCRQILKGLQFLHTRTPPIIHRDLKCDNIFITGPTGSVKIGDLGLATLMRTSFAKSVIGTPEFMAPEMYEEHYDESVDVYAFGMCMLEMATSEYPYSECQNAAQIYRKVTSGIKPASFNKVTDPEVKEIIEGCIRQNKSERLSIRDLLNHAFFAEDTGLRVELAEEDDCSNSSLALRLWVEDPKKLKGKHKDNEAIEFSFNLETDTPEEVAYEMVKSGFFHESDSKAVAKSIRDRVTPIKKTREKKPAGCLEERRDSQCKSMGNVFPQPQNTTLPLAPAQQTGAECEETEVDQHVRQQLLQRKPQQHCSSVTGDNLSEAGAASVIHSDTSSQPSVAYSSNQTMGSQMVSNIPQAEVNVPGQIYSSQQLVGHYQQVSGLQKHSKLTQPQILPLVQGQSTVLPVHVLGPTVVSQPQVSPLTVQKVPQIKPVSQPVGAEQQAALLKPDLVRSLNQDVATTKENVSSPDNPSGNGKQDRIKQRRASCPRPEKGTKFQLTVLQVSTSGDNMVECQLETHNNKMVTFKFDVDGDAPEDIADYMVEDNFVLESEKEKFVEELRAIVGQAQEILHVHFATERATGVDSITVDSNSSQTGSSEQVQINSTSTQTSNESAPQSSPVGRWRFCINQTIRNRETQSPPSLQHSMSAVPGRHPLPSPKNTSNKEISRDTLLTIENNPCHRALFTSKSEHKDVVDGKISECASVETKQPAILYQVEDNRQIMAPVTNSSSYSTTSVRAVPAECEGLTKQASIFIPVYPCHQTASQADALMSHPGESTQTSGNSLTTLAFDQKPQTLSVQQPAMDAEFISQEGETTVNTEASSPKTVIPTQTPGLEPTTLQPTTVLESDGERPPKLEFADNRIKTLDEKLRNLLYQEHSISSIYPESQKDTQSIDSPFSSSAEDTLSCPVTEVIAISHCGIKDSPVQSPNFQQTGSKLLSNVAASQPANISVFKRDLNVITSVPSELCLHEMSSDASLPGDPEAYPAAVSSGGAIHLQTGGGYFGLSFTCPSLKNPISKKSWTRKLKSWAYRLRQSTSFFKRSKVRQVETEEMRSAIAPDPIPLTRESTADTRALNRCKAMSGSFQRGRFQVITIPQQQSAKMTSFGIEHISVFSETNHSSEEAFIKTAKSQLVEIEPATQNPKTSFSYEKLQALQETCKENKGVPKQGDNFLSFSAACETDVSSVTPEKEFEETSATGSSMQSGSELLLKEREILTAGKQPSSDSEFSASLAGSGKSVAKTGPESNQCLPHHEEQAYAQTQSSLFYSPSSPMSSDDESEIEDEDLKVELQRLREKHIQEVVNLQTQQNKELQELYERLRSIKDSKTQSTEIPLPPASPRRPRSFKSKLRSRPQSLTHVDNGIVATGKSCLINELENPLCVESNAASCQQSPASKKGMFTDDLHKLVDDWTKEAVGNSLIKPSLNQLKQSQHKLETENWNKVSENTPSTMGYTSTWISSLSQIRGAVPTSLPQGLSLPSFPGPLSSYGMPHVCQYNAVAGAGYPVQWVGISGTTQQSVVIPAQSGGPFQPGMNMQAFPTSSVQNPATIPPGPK
Procedure: as §1

CHK2(h) = CHK2(h) (Homo sapiens, UniProt O96017); experiment: Kinase Profiler; type: biochemical
Procedure: as §1

SMILES: COc1ccc(OC)c(NS(=O)(=O)c2ccc(NC(=O)CCSc3ccc(C)cc3)cc2)c1 [Compound A41]
- Activity(%) (JNK1α1(h)): 94%
- Activity(%) (PRK1(h)): 93%
- Activity(%) (MAPK2(h)): 103%
- Activity(%) (MAPK2(m)): 108%
- Activity(%) (SGK3(h)): 106%
- Activity(%) (FGFR2(N549H)(h)): 105%
- Activity(%) (ICK(h)): 77%
- Activity(%) (MEK2(h)): 109%
- % inh. [1]: 15%
- Activity(%) (PRP4(h)): 110%
- Activity(%) (Syk(h)): 91%
- Activity(%) (CK2α2(h)): 109%
- Activity(%) (SRMS(h)): 102%
- Activity(%) (PhKγ2(h)): 98%
- Activity(%) (EphA4(h)): 111%
- Activity(%) (CaMKIδ(h)): 94%
- Activity(%) (MRCKγ(h)): 97%
- Activity(%) (GRK2(h)): 96%
- % inh. (Dopamine D1): 17%
- Activity(%) (TYK2(h)): 108%
- % inh. [2]: 30%
- Activity(%) (Abl(h)): 90%
- Activity(%) (ROCK-II(h)): 93%
- cell adhesion (NIH/3T3 cell adhesion): efficiently inhibited both functions
- Activity(%) (WNK3(h)): 101%
- Activity(%) (CHK2(h)): 111%
